Experimental data: patent US20070196491A1, “DRUG DELIVERY SYSTEMS COMPRISING WEAKLY BASIC DRUGS AND ORGANIC ACIDS” (EURAND, INC., priority 2006, published 2007)
In brackets after ≈: the same amount, converted by molar mass. Where a name gives a salt, the structure may show the parent alone. Read-outs that look alike come from different tables or passages of the source.

Key:
[1] = cited from earlier work
[2] = pH 2.14
[3] = Solubilities of weakly basic drugs in organic acid buffers
[4] = intestinal regions; cited from earlier work

## OCCN(CCO)c1nc(N2CCCCC2)c2nc(N(CCO)CCO)nc(N3CCCCC3)c2n1 [Dipyridamole]
[1]; in dilute acids
  solubility (in words): soluble
[1]; in water, neutral and alkaline buffers
  solubility (in words): practically insoluble

## Cc1nccn1CC1CCc2c(c3ccccc3n2C)C1=O (stereo not shown) [Ondansetron Hydrochloride, Ondansetron hydrochloride]
[2]
  Solubility of Ondansetron Hydrochloride: 27000 µg/mL
[1]; at a pH of 6.8
  solubility (in words): practically insoluble
[1]; at acidic pHs
  solubility (in words): fairly soluble
[3]; fumaric acid 0.0025 mg/mL, start pH 4.15, end pH 4.33
  Solubility of Ondansetron Hydrochloride: 26100 µg/mL
[3]; fumaric acid 0.01 mg/mL, start pH 3.64, end pH 4.05
  Solubility of Ondansetron Hydrochloride: 26100 µg/mL
[3]; fumaric acid 0.25 mg/mL, start pH 2.79, end pH 2.75
  Solubility of Ondansetron Hydrochloride: 26200 µg/mL
[3]; fumaric acid 1 mg/mL, start pH 2.48, end pH 2.40
  Solubility of Ondansetron Hydrochloride: 26100 µg/mL
[3]; fumaric acid 5 mg/mL, start pH 2.13, end pH 2.01
  Solubility of Ondansetron Hydrochloride: 26900 µg/mL

## COc1ccccc1OCCNCC(O)COc1cccc2[nH]c3ccccc3c12 (racemic) [Carvedilol]
[1]; above a pH of 9
  aqueous solubility: < 1 µg/mL
[1]; at a pH 5
  aqueous solubility: about 100 μg/mL
[1]; at a pH of 7
  aqueous solubility: about 23 μg/mL
[4]
  in vivo absorption within the intestine, decreasing order: jejunum>ileum>colon
physchem; pH 2.12, aqueous buffer
  solubility: 2510 µg/mL (≈ 6170 µM)
physchem; pH 2.28, aqueous buffer
  solubility: 1360 µg/mL (≈ 3350 µM)
physchem; pH 2.54, aqueous buffer
  solubility: 731 µg/mL (≈ 1800 µM)
physchem; pH 2.94, aqueous buffer
  solubility: 508 µg/mL (≈ 1250 µM)
physchem; pH 3.64, aqueous buffer
  solubility: 121 µg/mL (≈ 298 µM)
physchem; pH 5.46, aqueous buffer
  solubility: 105 µg/mL (≈ 258 µM)
physchem; pH 5.9, aqueous buffer
  solubility: 28 µg/mL (≈ 68.9 µM)

## O=C1CN=C(c2ccccc2Cl)c2cc([N+](=O)[O-])ccc2N1 [Clonazepam]
[3]; pH of buffer 4.8
  Solubility (mg/mL) of Clonazepam in Fumaric Acid: 0.0095 mg/mL
